Where “and” joins values, the source holds several entries; their conditions need not be identical. Equal values may be shown once.

Test [1] concerns human SK-Mel28 melanoma cells. The test can be described thus: Different angiogenesis inhibitors as monotherapy in human melanoma model SK-Mel28 (FIG. 1). The test is classed as in vivo. The note with it: daily treatment from tumor size 20-30 mm^2; ZK261991 orally 50 mg/kg per day. The procedure:
Human SK-MeI 28 melanoma cells were cultivated in RPMI1640 medium together with 1% glucose and 10% foetal calf serum. 3 million cells per animal have been transferred to NMRI nu/nu nude mice in a volume of 0,1 ml in a 1:1 mixture consisting of media and matri gel. With achieving the tumor size of about 20 mm^2, in this case on day 3, the treatment of the animals has been started.
In a human melanoma model SK-Mel28 different angiogenesis inhibitors have been tested. […] In this experiment the tumor have been daily treated with different compounds beginning after establishment of the tumors, respectively at a size of 20-30 mm^2. The compound ZK261991 was orally applied in a dosage of 50 mg/kg per day and in a volume of 0.1 ml/10 g body weight, as a 5% DMSO/Ethanol 1:1 mixture in 0.085 Myrj85®/0.9% NaCl formulation. ZK222584 (PTK/ZK, Vatalanib) comprised in the same formulation was applied. Further Bay43-9006 (Nexavar®) in 30% hydroxy propyl cyclodextrine (HP-β-CD), pH 5.0 in the same volume of 0.1 ml/10 g body weight was applied. […] However, no reaction could be determined with a dosage of 5 and 10 mg/kg (s. FIG. 2). The tumors have been treated in a daily manner with different MS-275 dosages, beginning with the set up at a size of ca. 20-30 mm^2. MS-275 was applied in 30% hydroxypropyl cyclodextrine (HP-β-CD), pH5.0, in a volume of 0.1 ml/10 g body weight.

Test [2] concerns Human SK-MeI 28 melanoma cells. The test can be described thus: Combination study of ZK 261991 and MS-275 in human SK-Mel 28 melanoma model in NMRI nu/nu nude mice (tumor area, tumor weight). Type of test: in vivo. As to conditions: for Tumor area on day 57, average: group average; for Tumor area of the single studied groups on day 57: single animals.
Description: For this, the animals have been randomized and separated into the following test group (8 animals per group, each):
MS-275; 10 mg/kg/day 3. […] Untreated control (these animals received the solution solvent, only)
The compounds are orally daily applied via a probang till the end of the experiment on day 57. The tumor size was determined (length×width) after 6-7 days. On day 57, the animals were sacrificed by breaking the neck and the tumors were isolated. The weight of the tumors was determined. The tumor size (tumor area in mm^2) was inserted into a diagram, as function of the time. An average of the tumor weight of each group was calculated, as well as the variation and was inserted into a diagram. In the same time interval the tumor size was determined, also the body weight was determined by balancing. The data were inserted in a diagram as function of the time.
The tumors were treated in a daily manner with the different compounds beginning with the establishment, at a size of ca. 20.30 mm^2. […] For the calculation of the statistically signification the SigmaStat-programm with the One-Way-ANOVA-analysis was used.
For the calculation of the statistically significance the SigmaStat-program with a One-Way-ANOVA-analysis was used.
Setting [3] is: day 57, ZK261991 50 mg/kg/day, MS-275 10 mg/kg/day, oral daily, alone or combined.

As to `CNC(=O)c1cc(Oc2ccc(NC(=O)Nc3ccc(Cl)c(C(F)(F)F)c3)cc2)ccn1` [Bay43-9006], in test [1], the “inhibitory effect onto the tumor growth, FIG. 1” value is “No inhibitory effect”.

For the compound `Nc1ccccc1NC(=O)c1ccc(CNC(=O)OCc2cccnc2)cc1` [MS-275, 3-pyridylmethyl-N-{4-[(2-amino-phenyl)-carbamoyl]benzyl}carbamate], the “reduction of the tumor weight in comparison to the untreated control (percentage of inhibition)” value in test [2] (setting [3]) turned out to be 0%. Further, the “Tumor area on day 57, average” value in test [2] (MS-275 10 mg/kg/day oral daily, day 57) is on record as 135.7 mm^2. The “Tumor area of the single studied groups on day 57” value in test [2] (MS-275 10 mg/kg/day oral daily, day 57, 10 mg/kg/day) is 132.1 mm^2 and 169.1 mm^2 and 142.9 mm^2 and 128.6 mm^2 and 169.2 mm^2 and 104.2 mm^2 and 112.1 mm^2 and 127.2 mm^2.

Turning to `Clc1ccc(Nc2nnc(Cc3ccncc3)c3ccccc23)cc1` [ZK222584, Vatalanib], the “inhibitory effect onto the tumor growth, FIG. 1” value in test [1] was “No inhibitory effect”.

On to `CN(C)C(=O)Nc1cc(CNc2ccccc2C(=O)Nc2ccc3cn(C)nc3c2)ccn1` [ZK 261991, N′2′-{[2-(3,3-Dimethylureido)pyridine-4-yl]methyl}-N-(2-methyl-2H-indazol-6-yl)Anthranilamid], for which the “inhibitory effect onto the tumor growth, FIG. 1” value in test [1] is reported as “No inhibitory effect”. The “reaction of tumor growth (tumor area) to treatment, FIG. 3” value in test [2] (daily oral treatment, ZK261991 50 mg/kg/day, MS-275 10 mg/kg, alone or combined, One-Way-ANOVA) was “statistically significant but moderate result”. Moreover, in test [2] (setting [3]), the “T/C value (tumor weight)” value was found to be 0.55 and the “reduction of the tumor weight in comparison to the untreated control (percentage of inhibition)” value is given as 45%. In addition, the “Tumor area on day 57, average” value in test [2] (ZK 261991 50 mg/kg/day oral daily, day 57) was found to be 104.7 mm^2. For the same compound, the “Tumor area of the single studied groups on day 57” value in test [2] (ZK 261991 50 mg/kg/day oral daily, day 57, 50 mg/kg/day) was 109.5 mm^2 and 100.1 mm^2 (2×) and 105.0 mm^2 and 118.8 mm^2 and 88.8 mm^2 and 116.3 mm^2 and 98.9 mm^2.

Source of the values: patent publication US20090048292A1, “SYNERGISTIC COMBINATION” (priority 2007, published 2009).
